Read-outs that look alike come from different tables or passages of the source.
Legend:
[1] = tested on: A549 cell line or H522 cell line; assay: SRB cell proliferation assay, non-small cell lung cancer cell lines; assay type: cell-based; conditions: for effect of inhibiting cell proliferation in the triple drug treatment group: cisplatin 20 μM or 5-FU 5 μM mixed with gossypol 5 μM and phenformin 100 μM (Tables 11-12, FIGS. 4B, 4C); for synergistic effect of anticancer action when mixed with gossypol and phenformin: lung cancer (NSCLC), cisplatin 20 μM or 5-FU 5 μM + gossypol 5 μM + phenformin 100 μM; for synergistic effect of anticancer action when mixed with gossypol and phenformin / degree of cell proliferation with respect to the untreated control: irinotecan 1 μM; for degree of cell proliferation with respect to the untreated control: gossypol 5 μM, phenformin 100 μM, single, double or triple (Table 10, FIG. 4A)
[2] = tested on: HT29 cell line or Colo205 cell line; assay: SRB cell proliferation assay, colorectal cancer cell lines; assay type: cell-based; conditions: for effect of inhibiting cell proliferation in the triple drug treatment group: cisplatin or capecitabine 10 μM mixed with gossypol 2.5 μM and phenformin 75 μM (Tables 8-9, FIGS. 3B, 3C); for synergistic effect of anticancer action when mixed with gossypol and phenformin: colon cancer, irinotecan 1 μM (phenformin 50 μM) or cisplatin/capecitabine 10 μM (phenformin 75 μM) + gossypol 2.5 μM; for degree of cell proliferation with respect to the untreated control: gossypol 2.5 μM, phenformin 50 μM, irinotecan 1 μM, single, double or triple (Table 7, FIG. 3A)
[3] = tested on: SK-OV-3 or OVCAR3 cell line; assay: SRB cell proliferation assay, ovarian cancer cell lines; assay type: cell-based; conditions: for degree of cell proliferation with respect to the untreated control: gossypol 5 μM, phenformin 100 μM, single or double (Table 16, FIG. 6A); for degree of cell proliferation with respect to the untreated control / synergistic effect of anticancer action when mixed with gossypol and phenformin: cisplatin 1 nM; for synergistic effect of anticancer action when mixed with gossypol and phenformin: ovarian cancer, paclitaxel 50 nM or irinotecan 0.5 μM + gossypol 5 μM + phenformin 100 μM; for effect of inhibiting cell proliferation in the triple drug treatment group: paclitaxel 50 nM or irinotecan 0.5 μM mixed with gossypol 5 μM and phenformin 100 μM (Tables 17-18, FIGS. 6B, 6C)
[4] = tested on: UACC62 cell line or an A375 cell line; assay: SRB cell proliferation assay, melanoma cell lines; assay type: cell-based; conditions: for effect of inhibiting cell proliferation in the triple drug treatment group: cisplatin or oxaliplatin 10 μM mixed with gossypol 5 μM and phenformin 100 μM (Tables 5-6, FIGS. 2B, 2C); for degree of cell proliferation with respect to the untreated control: gossypol 5 μM, phenformin 100 μM, single, double or triple (Table 4, FIG. 2A)
[5] = tested on: SNU449 or Huh7 cell line; assay: SRB cell proliferation assay, liver cancer cell lines; assay type: cell-based; conditions: for degree of cell proliferation with respect to the untreated control: gossypol 5 μM, phenformin 100 μM, cisplatin 1 μM, single or double (Table 22, FIG. 8A); for synergistic effect of anticancer action when mixed with gossypol and phenformin: liver cancer, cisplatin 1 μM or sorafenib 5 μM + gossypol 5 μM + phenformin 100 μM
[6] = tested on: BT549 cell line or MB231 cell line; assay: SRB cell proliferation assay, breast cancer cell lines; assay type: cell-based; conditions: for synergistic effect of anticancer action when mixed with gossypol and phenformin: breast cancer, named agent + gossypol 5 μM + phenformin 100 μM (Tables 13-15); for degree of cell proliferation with respect to the untreated control: gossypol 5 μM, phenformin 100 μM, third agent per Table 13 paclitaxel 50 nM, single, double or triple (FIG. 5A)
[7] = tested on: PC3 cell line or DU145 cell line; assay: SRB cell proliferation assay, prostate cancer cell lines; assay type: cell-based; conditions: for effect of inhibiting cell proliferation in the triple drug treatment group: docetaxel 50 nM or irinotecan 0.5 μM mixed with gossypol 5 μM and phenformin 100 μM (Tables 20-21, FIGS. 7B, 7C)
[8] = tested on: ACHN cell line or CAKI-1 cell line; assay: SRB cell proliferation assay, kidney cancer cell lines; assay type: cell-based; conditions: for degree of cell proliferation with respect to the untreated control: gossypol 2.5 μM, phenformin 100 μM, sorafenib 10 μM, single, double or triple (Table 1, FIG. 1A)
Procedure: Specifically, while culturing the ACHN cell line or CAKI-1 cell line, which is a kidney cancer cell line, each cell was inoculated into a 96-well plate at a density of 5,000 to 20,000 cells/well depending on the amplification phase of the culture time. After inoculation, the anticancer agent mixtures of the following [Table 1] to [Table 3] were added to each well and cultured in a CO2 incubator for 24 hours. The anticancer agent mixture was prepared so that the final concentration of each anticancer agent can be appropriately added by mixing each at a stock concentration and then adding 100 μl each. After treatment with the anticancer agent, cells were further cultured for 48 hours, and then 10% (w/v) trichloroacetic acid (TCA) was added to each well and incubated at 4° C. for 60 minutes to fix the cells. The supernatant liquid other than the fixed cells was removed, the plate was washed 5 times with tap water, and then dried in air. After drying, 100 μl of 0.4% (w/v) sulforhodamine B buffer solution containing 1% acetic acid was added to each well, and left at room temperature for 5 minutes to stain the cells. After staining the cells, the cells were washed 5 times with 1% acetic acid to remove unstained dye and then dried in air. The colored dye was immobilized with 10 mM trizma base, and then absorbance was measured at 515 nm using a plate reader. As an untreated control, the degree of cell proliferation of a cell line cultured without treatment with an anticancer agent was measured, and the degree of cell proliferation of each experimental group with respect to the untreated control was calculated as a relative ratio and expressed as a percentage (%).

[9] = tested on: SNU638 cells xenograft tumor; assay: Gastric cancer mouse model, tumor growth; assay type: in vivo, Balb/c-nu mice; conditions: gossypol 80 mg/kg, phenformin 100 mg/kg, irinotecan 30 mg/kg, single, double or triple; vs solvent control (Table 27, FIGS. 12A, 12B)
Procedure: First, in order to make a lung cancer mouse model, 6 to 8 week old Balb/c-nu mice (Central Lab. Animal, Highland Heights, KY, USA) were prepared. In addition, 7.5×10^6 A549 cell line was cultured, and was injected subcutaneously to the prepared mice with a 1 ml syringe. Mice were reared for 1 week and divided into 4 groups of 8 mice each, and these were used as a control group or an experimental group as defined in [Table 24] and [Table 25]. The solvent or drug was orally administered to the mice of the solvent control group, the double drug treatment group, and the triple drug treatment group once a day, 6 days per week, and while administering intravenously irinotecan to the mice of the single treatment group with irinotecan once a day, 1 day per week, the mice were reared in the same environment for a total of 49 days. While breeding, the average was obtained by checking the weight and size of the tumor of the mouse group every 7 days. After injection of lung cancer cells, the initial tumor size was specified using a calliper. The tumor volume was calculated according to the following [Equation 1].
Specifically, the mouse model with the gastric cancer was prepared by the same method as the method of preparing the lung cancer mouse model in [Example 9], except that the mouse model with the gastric cancer was prepared by xenografting SNU638 cells (1.5×10^7). Then, the prepared mouse model with the gastric cancer was used as a control group or an experimental group as defined in the following [Table 27].

SMILES | synergistic effect of anticancer action when mixed with gossypol and phenformin [1] | synergistic effect of anticancer action when mixed with gossypol and phenformin [2] | degree of cell proliferation with respect to the untreated control [3] | synergistic effect of anticancer action when mixed with gossypol and phenformin [3] | degree of cell proliferation with respect to the untreated control [5] | degree of cell proliferation with respect to the untreated control [8] | degree of cell proliferation with respect to the untreated control [1] | degree of cell proliferation with respect to the untreated control [2] | level of tumor growth [9] | degree of cell proliferation with respect to the untreated control [6] | further results
O=c1[nH]cc(F)c(=O)[nH]1 [5-FU, 5-fluorouracil] | not exhibited |  |  |  |  |  |  |  |  |  | effect of inhibiting cell proliferation in the triple drug treatment group [1]: level similar to that of the double drug treatment group
CCCCCOC(=O)Nc1nc(=O)n([C@@H]2O[C@H](C)[C@@H](O)[C@H]2O)cc1F [capecitabine] |  | not exhibited |  |  |  |  |  |  |  |  | effect of inhibiting cell proliferation in the triple drug treatment group [2]: level similar to that of the double drug treatment group
N.N.[Cl][Pt][Cl] [cisplatin] | not exhibited | not exhibited | proliferation of cancer cells could be inhibited at a significant level | can exhibit a synergistic effect | proliferation of cancer cells could be inhibited at a significant level |  |  |  |  |  | effect of inhibiting cell proliferation in the triple drug treatment group [1]: level similar to that of the double drug treatment group; effect of inhibiting cell proliferation in the triple drug treatment group [4]: level similar to that of the double drug treatment group; synergistic effect of anticancer action when mixed with gossypol and phenformin ([4]; melanoma, vemurafenib 0.5 μM, cisplatin 10 μM or oxaliplatin 10 μM + gossypol 5 μM + phenformin 100 μM): not exhibited; effect of inhibiting cell proliferation in the triple drug treatment group [2]: level similar to that of the double drug treatment group; synergistic effect of anticancer action when mixed with gossypol and phenformin [5]: can exhibit a synergistic effect; synergistic effect of anticancer action when mixed with gossypol and phenformin [6]: not exhibited; effect of inhibiting cell proliferation in the triple drug treatment group ([6]; cisplatin 1 μM or doxorubicin 1 μM mixed with gossypol 5 μM and phenformin 100 μM (Tables 14-15, FIGS. 5B, 5C)): level similar to that of the double drug treatment group
CC(=O)O[C@@]12CO[C@@H]1C[C@H](O)[C@@]1(C)C(=O)[C@H](O)C3=C(C)[C@@H](OC(=O)[C@H](O)[C@@H](NC(=O)OC(C)(C)C)c4ccccc4)C[C@@](O)([C@@H](OC(=O)c4ccccc4)[C@H]21)C3(C)C [docetaxel] |  |  |  |  |  |  |  |  |  |  | effect of inhibiting cell proliferation in the triple drug treatment group [7]: level similar to that of the double drug treatment group
Cc1cc2c(C(C)C)c(O)c(O)c(C=O)c2c(O)c1-c1c(C)cc2c(C(C)C)c(O)c(O)c(C=O)c2c1O [gossypol] |  |  | proliferation of cancer cells could be inhibited at a significant level |  | proliferation of cancer cells could be inhibited at a significant level | proliferation of cancer cells could be inhibited | proliferation of cancer cells could be inhibited at a significant level | proliferation of cancer cells could be inhibited at a significant level | a level similar to levels of tumor growth | proliferation of cancer cells could be inhibited at a significant level | degree of cell proliferation with respect to the untreated control ([4]; vemurafenib 0.5 μM): proliferation of cancer cells could be inhibited at a significant level; degree of cell proliferation with respect to the untreated control [7]: proliferation of cancer cells could be inhibited at a significant level
CCc1c2c(nc3ccc(OC(=O)N4CCC(N5CCCCC5)CC4)cc13)-c1cc3c(c(=O)n1C2)COC(=O)[C@]3(O)CC [irinotecan] | can exhibit a synergistic effect | can exhibit a synergistic effect |  | not exhibited |  |  | proliferation of cancer cells could be inhibited at a significant level | proliferation of cancer cells could be inhibited at a significant level | significantly decreased the level of tumor growth | proliferation of cancer cells could be inhibited at a significant level | effect of inhibiting cell proliferation in the triple drug treatment group [3]: level similar to that of the double drug treatment group; effect of inhibiting cell proliferation in the triple drug treatment group [7]: level similar to that of the double drug treatment group; synergistic effect of anticancer action when mixed with gossypol and phenformin [6]: can exhibit a synergistic effect
O=C1[O][Pt]2([NH][C@@H]3CCCC[C@H]3[NH]2)[O]C1=O [oxaliplatin] |  |  |  |  |  |  |  |  |  |  | effect of inhibiting cell proliferation in the triple drug treatment group [4]: level similar to that of the double drug treatment group
CC(=O)O[C@H]1C(=O)[C@@]2(C)[C@H]([C@H](OC(=O)c3ccccc3)[C@]3(O)C[C@H](OC(=O)[C@H](O)[C@@H](NC(=O)c4ccccc4)c4ccccc4)C(C)=C1C3(C)C)[C@]1(OC(C)=O)CO[C@@H]1C[C@@H]2O [paclitaxel] |  |  |  | not exhibited |  |  |  |  |  |  | effect of inhibiting cell proliferation in the triple drug treatment group [3]: level similar to that of the double drug treatment group
NC(N)=N/C(N)=N/CCc1ccccc1 [phenformin] |  |  | proliferation of cancer cells could be inhibited at a significant level |  | proliferation of cancer cells could be inhibited at a significant level | proliferation of cancer cells could be inhibited | proliferation of cancer cells could be inhibited at a significant level | proliferation of cancer cells could be inhibited at a significant level | a level similar to levels of tumor growth | proliferation of cancer cells could be inhibited at a significant level | degree of cell proliferation with respect to the untreated control ([4]; vemurafenib 0.5 μM): proliferation of cancer cells could be inhibited at a significant level; degree of cell proliferation with respect to the untreated control ([7]; gossypol 5 μM, phenformin 100 μM, doxorubicin 1 nM, single, double or triple (Table 19, FIG. 7A)): proliferation of cancer cells could be inhibited at a significant level
CNC(=O)c1cc(Oc2ccc(NC(=O)Nc3ccc(Cl)c(C(F)(F)F)c3)cc2)ccn1 [sorafenib] |  |  |  |  |  | proliferation of cancer cells could be inhibited |  |  |  |  | synergistic effect of anticancer action when mixed with gossypol and phenformin ([8]; renal cell carcinoma, named agent 10 μM + gossypol 2.5 μM + phenformin 100 μM): can exhibit a synergistic effect; synergistic effect of anticancer action when mixed with gossypol and phenformin [5]: not exhibited; effect of inhibiting cell proliferation in the triple drug treatment group ([5]; sorafenib 5 μM mixed with gossypol 5 μM and phenformin 100 μM (Table 23, FIG. 8B)): level similar to that of the double drug treatment group
